Test [1] deals with B6A/J mice. The test can be described thus: 10-week batimastat treatment of 12Mo B6A/J mice, gastrocnemius histopathology. It counts as in vivo, mouse. Here is the method:
(§1) Whether this effect of batimastat to repress FAP adipogenesis can improve muscle histopathology was tested in vivo. 12Mo B6A/J mice were treated for 10 weeks with batimastat (2 mg/kg i.p. 3× weekly). […] To determine if this reduction in adipogenic replacement was due to an effect on just FAP differentiation or also on FAP proliferation, FAP accumulation was quantified by PDGFRα labeling and no effect of batimastat treatment on FAP number was found (FIG. 12). […] Thus, inhibition of adipogenesis by batimastat is not due to reduced FAP numbers or improved myofiber repair. To further confirm the ability of batimastat to prevent dysferlinopathic muscle from injury-triggered FAP adipogenesis, we employed the repeat notexin-induced TA injury approach which induces significant adipogenic replacement of the muscle (FIG. 6D and FIG. 6E). […] Given that FAP numbers are unaffected by batimastat treatment, it was examined whether these batimastat treatment causes cells to adopt a fibrogenic fate by blocking their adipogenic differentiation. However, no change in intra-muscular fibrosis was observed as a result of batimastat treatment in either the gastrocnemius or injured TA (FIG. 12). Taken together, the above results both confirm the essential nature of FAP adipogenesis for the adipogenic conversion of dysferlinopathic muscle, and highlight the potential of batimastat to arrest the progressive and even late stage adipogenic replacement of dysferlinopathic muscle.
Immunohistochemical Analysis of Muscle Sections. Frozen sections 8 μm thick were cut from human biopsies and the midbelly of mouse muscles. Lipid was visualized using an Oil Red O staining kit (American MasterTech, #KTORO) according to manufacturer's instructions. […]
(§2) Microscopy and Image Analysis. […] Perilipin-1 quantification was performed by thresholding the image to exclude non-specific staining and then calculating the area of each lipid deposit encircled by perlipin-1 (excluding those in the epi- or perimysium) using MetaMorph software (Molecular Devices). The total area encircled by perilipin-1 was calculated for all lipid deposits across the muscle and expressed relative to the total cross-sectional area. PDGFRα and AnxA2 positive area was calculated using CellSens software (Olympus) by thresholding to remove non-specific staining and calculating the total positive area (again, excluding any epi- or perimysial staining) relative to the entire muscle cross-section.
For in vivo studies, 12Mo B6A/J mice were treated thrice weekly with batimastat (Sigma-Aldridge, #SML0041), 2 mg/kg i.p. for 10 weeks. At the end of the treatment period, the effect of batimastat on disease pathology was evaluated by quantification of perilipin-1 marked lipid area in the gastrocnemius and compared to untreated controls. […]

Test [2] has as its system B6A/J mice. The test can be described thus: Repeat notexin-induced TA injury in batimastat-treated B6A/J mice. It counts as in vivo, mouse. Here is the method:
as §1, with “Taken together, the above results both confirm the essential nature of FAP adipogenesis for the adipogenic conversion of dysferlinopathic muscle, and highlight the potential of batimastat to arrest the progressive and even late stage adipogenic replacement of dysferlinopathic muscle.” left out
as §2, with “cross-section. […]” for “cross-section.”

Test [3] concerns cultured adipogenic precursors and WT mouse FAPs. Conditions: previously shown; cited from earlier work.
[4] abbreviates: 12Mo B6A/J mice, 2 mg/kg i.p. 3× weekly for 10 weeks.

This is an account of results in patent US12594278B2, “Method for treatment of muscular dystrophy” (CHILDREN'S NATIONAL MEDICAL CENTER, priority 2019, dated 2026).

In the case of `CNC(=O)[C@H](Cc1ccccc1)NC(=O)[C@H](CC(C)C)[C@H](CSc1cccs1)C(=O)NO` [batimastat], in the test with B6A/J mice [1] (setting [4]), the “FAP number (PDGFRα labeling) in gastrocnemius” value is recorded as “no effect” and the “extent of myofiber central nucleation” value is on record as “did not decrease”. The “perilipin-1 labeled area in gastrocnemius” value in the test on B6A/J mice [1] (12Mo B6A/J mice, 2 mg/kg i.p. 3× weekly for 10 weeks, vs untreated mice) is reported as “significantly reduced”. Further, the “intra-muscular fibrosis in gastrocnemius (Masson's trichrome)” value in the test on B6A/J mice [1] (batimastat 2 mg/kg i.p. 3× weekly for 10 weeks) is “no change”. For the same compound, the “reduction in perilipin-1 positive area in TA following repeat notexin injury” value in the test with B6A/J mice [2] (3 notexin injuries during 10 weeks of batimastat 2 mg/kg i.p. 3× weekly, vs untreated mice) is recorded as ~40%. For the same compound, the “intra-muscular fibrosis in injured TA (Masson's trichrome)” value with B6A/J mice [2] (3 repeat notexin injuries, batimastat 2 mg/kg i.p. 3× weekly for 10 weeks) is on record as “no change”. For the same compound, in the test with B6A/J mice [2] (TA, batimastat 2 mg/kg i.p. 3× weekly for 10 weeks), the “FAP accumulation caused by repeat notexin injuries (PDGFRα)” value was “did not reduce”. The “adipogenesis of cultured adipogenic precursors and WT mouse FAPs” value in test [3] was “restrict adipogenesis”.
